Reference: paper PMC6024615, “Effect of Biliary Drainage on the Toxicity and Toxicokinetics of Amanita exitialis in Beagles” (Toxins, 2018)

Assay: Peptide toxins in the bile of beagles with biliary drainage
Type: in vivo, beagle dogs
Settings: for Accumulated amounts excreted in bile / percentage of total bile excretion, Accumulated amounts: 0–4 days; for ratio of peptide toxins in bile to excretion in urine and bile: mean ± SD
Description: The study was approved by National Institute of Occupational Health and Poison Control review board for animal experiments. Twenty-four male beagles (age, 8–10 months; weight, 10 ± 1 kg) were obtained from Beijing Institute of Xieerxin Biology Resource (Beijing, China). They were randomly divided into four groups of six animals each: control, biliary drainage, and 20 and 60 mg/kg with biliary drainage groups. The biliary drainage operation was conducted in all groups barring the control group. The dogs were dressed in homemade underwear, coats, and Elizabeth circles for a week to ensure pre-experimental acclimatization (Figure S8a–c). After determining the baseline values for biochemical indicators, the dogs were fasted for 24 h but received water ad libitum. They were anesthetized by intravenous administration of pentobarbital sodium (3%, 1 mL/kg) during the surgery. A temperature of 38–39 °C was maintained with a warming mat. After skin preservation and sterilization, the abdominal cavity was opened through the central abdomen. The abdomen was explored and blunt dissection of the common bile duct was performed (Figure S8d). The common bile duct and its branches were ligated from the intestinal side. A 7.0-Fr drainage catheter (COOK, Bloomington, IN, USA) was percutaneously inserted into the gallbladder, and a medical drainage bag was connected to the drainage catheter coming out of the abdominal cavity. Each opened layer, including the peritoneum, abdominal wall muscle, and skin, was closed with suture. The operative incision was protected with sterile gauze and a bandage, and the dogs were dressed in homemade underwear, coats, and Elizabeth circles. The drainage bag was placed in the pocket of the coat (Figure S8e). After the anesthetic wore off, the dogs were placed in cages, and food and water were provided ad libitum. The operative incision was sterilized with iodophor twice a day until stitches were removed six days after surgery. The drainage bag was replaced every day. On the eighth day after surgery, the 20 and 60 mg/kg with biliary drainage groups were orally administered a lyophilized powder of Amanita exitialis in starch capsules. In control and bile drainage group, the beagle dogs were fed with empty capsules. Immediately after dosing, the animals were placed in their cages, and food and water were provided ad libitum. Dogs were sacrificed with an overdose of sodium pentobarbital at the end of the experiment. All procedures were performed according to the ethical standards of the National Institutes of Health Guide for Animal Welfare and approved by the Institutional Animal Care and Use Committee (EAWE-2017-005).
Peptide toxins in blood and urine samples were analyzed as described previously. Bile samples from Days 0–1, Days 1–2, Days 2–3, and Days 3–4 were collected and stored in medical drainage bags and the bile volume was recorded. Plasma and urine samples were stored at 2–8 °C until analysis for peptide toxins.
α-Amanitin, β-amanitin, γ-amanitin, and phallacidin were used as the standard reference materials. Aliquots (0.2 mL) of bile samples were transferred into 2-mL polypropylene centrifuge tubes in duplicates. Next, 1 mL of acetonitrile was added to each tube. After vortex-mixing for 1 min, each sample was sonicated for 30 min and centrifuged at 11,200× g for 10 min at 4 °C. The supernatants were loaded on solid-phase extraction columns (Oasis PRiME HLB, 60 mg, 3 cc). The columns were then washed with 3 mL of methanol/ultrapure water (v/v: 5/95). The eluent was evaporated in a stream of nitrogen at room temperature. The dry residue was dissolved in 0.2 mL of ultrapure water and analyzed by UPLC-ESI-MS/MS.
UPLC and MS/MS parameters were as described in our previous study. The limit of detection and limit of quantitation of each toxin in the bile were 0.03 mg/kg and 0.5 mg/kg, respectively.

[1] = 0-1 d, 60 mg/kg with biliary drainage group
[2] = 0–1 days, 20 mg/kg with biliary drainage group
[3] = 0–1 days, 60 mg/kg with biliary drainage group
[4] = 20 mg/kg with biliary drainage group
[5] = 60 mg/kg with biliary drainage group
[6] = 1-2 d, 20 mg/kg with biliary drainage group
[7] = 1-2 d, 60 mg/kg with biliary drainage group
[8] = 1–2 days, 20 mg/kg with biliary drainage group
[9] = 1–2 days, 60 mg/kg with biliary drainage group
[10] = 2-3 d, 20 mg/kg with biliary drainage group
[11] = 2-3 d, 60 mg/kg with biliary drainage group
[12] = 2–3 days, 20 mg/kg with biliary drainage group
[13] = 2–3 days, 60 mg/kg with biliary drainage group
[14] = 3-4d, 20 mg/kg with biliary drainage group
[15] = 3-4d, 60 mg/kg with biliary drainage group
[16] = 3–4 days, 20 mg/kg with biliary drainage group
[17] = 3–4 days, 60 mg/kg with biliary drainage group

With `CC[C@H](C)[C@@H]1NC(=O)CNC(=O)[C@@H]2Cc3c([nH]c4cc(O)ccc34)[S@+]([O-])C[C@H](NC(=O)CNC1=O)C(=O)N[C@@H](CC(N)=O)C(=O)N1C[C@H](O)C[C@H]1C(=O)N[C@@H]([C@@H](C)[C@@H](O)CO)C(=O)N2` [α-amanitin] the “detection rate of peptide toxins in bile” value [1] was 83%, the “daily amount excreted in bile” value [2] was 0.00007 mg and the “percentage of total bile excretion excreted daily” value [2] was 100%. For the same compound, the “daily amount excreted in bile” value [3] was 0.00061 mg, the “percentage of total bile excretion excreted daily” value [3] was 100% and the “Accumulated amounts excreted in bile” value [4] was 0.00007 mg. For the same compound, the “percentage of total bile excretion, Accumulated amounts” value (from here on “percentage … Accumulated amounts”) [4] was 100%, the “Accumulated amounts excreted in bile” value [5] was 0.00061 mg and the “percentage … Accumulated amounts” value [5] was 100%. The “ratio of peptide toxins in bile to excretion in urine and bile” value (shortened to “ratio of peptide toxins in bile”) [4] was “less than 10%”, the “ratio of peptide toxins in bile” value (20 mg/kg with biliary drainage group, listed as α-Amanitin) was 1.3 ± 2.4% and the “ratio of peptide toxins in bile” value [5] was “less than 20%”. The “ratio of peptide toxins in bile” value (60 mg/kg with biliary drainage group, listed as α-Amanitin) was 3.1 ± 2.5%, the “detection rate of peptide toxins in bile” value [6] was 0% and the “toxin concentration in bile” value [6] was 0 µg/L. For the same compound, the “detection rate of peptide toxins in bile” value [7] was 0%, the “toxin concentration in bile” value [7] was 0 µg/L and the “daily amount excreted in bile” value [8] was 0(0%) mg. For the same compound, the “percentage of total bile excretion excreted daily” value [8] was 0(0%), the “daily amount excreted in bile” value [9] was 0(0%) mg and the “percentage of total bile excretion excreted daily” value [9] was 0(0%). The “detection rate of peptide toxins in bile” value [10] was 0%, the “toxin concentration in bile” value [10] was 0 µg/L and the “detection rate of peptide toxins in bile” value [11] was 0%. For the same compound, the “toxin concentration in bile” value [11] was 0 µg/L, the “daily amount excreted in bile” value [12] was 0(0%) mg and the “percentage of total bile excretion excreted daily” value [12] was 0(0%). For the same compound, the “daily amount excreted in bile” value [13] was 0(0%) mg, the “percentage of total bile excretion excreted daily” value [13] was 0(0%) and the “detection rate of peptide toxins in bile” value [14] was 0%. The “toxin concentration in bile” value [14] was 0 µg/L, the “detection rate of peptide toxins in bile” value [15] was 0% and the “toxin concentration in bile” value [15] was 0 µg/L. For the same compound, the “daily amount excreted in bile” value [16] was 0(0%) mg, the “percentage of total bile excretion excreted daily” value [16] was 0(0%) and the “daily amount excreted in bile” value [17] was 0(0%) mg. The “percentage of total bile excretion excreted daily” value [17] was 0(0%).
In the case of `CC[C@H](C)[C@@H]1NC(=O)CNC(=O)[C@@H]2Cc3c([nH]c4cc(O)ccc34)[S@+]([O-])C[C@H](NC(=O)CNC1=O)C(=O)N[C@@H](CC(=O)O)C(=O)N1C[C@H](O)C[C@H]1C(=O)N[C@@H]([C@@H](C)[C@@H](O)CO)C(=O)N2` [β-amanitin], the “detection rate of peptide toxins in bile” value (0-1 d, 20 mg/kg with biliary drainage group) is reported as 50%, the “detection rate of peptide toxins in bile” value [1] is reported as 83% and the “daily amount excreted in bile” value [2] is reported as 0.00014 mg. For the same compound, the “percentage of total bile excretion excreted daily” value [2] was 100%, the “daily amount excreted in bile” value [3] was 0.00122 mg and the “percentage of total bile excretion excreted daily” value [3] was 100%. The “Accumulated amounts excreted in bile” value [4] was 0.00014 mg, the “percentage … Accumulated amounts” value [4] was 100% and the “percentage … Accumulated amounts” value [5] was 100%. For the same compound, the “Accumulated amounts excreted in bile” value (60 mg/kg with biliary drainage group, 60 mg/kg) was 0.0012 mg, the “Accumulated amounts excreted in bile” value (60 mg/kg with biliary drainage group, listed as β-Amanitin, 60 mg/kg) was 0.00122 mg and the “ratio of peptide toxins in bile” value [4] was “less than 10%”. The “ratio of peptide toxins in bile” value (20 mg/kg with biliary drainage group, listed as β-Amanitin) was 5.7 ± 8.5%, the “ratio of peptide toxins in bile” value [5] was “less than 20%” and the “ratio of peptide toxins in bile” value (60 mg/kg with biliary drainage group, listed as β-Amanitin) was 15.4 ± 10.6%. For the same compound, the “detection rate of peptide toxins in bile” value [6] was 0%, the “toxin concentration in bile” value [6] was 0 µg/L and the “detection rate of peptide toxins in bile” value [7] was 0%. For the same compound, the “toxin concentration in bile” value [7] was 0 µg/L, the “daily amount excreted in bile” value [8] was 0(0%) mg and the “percentage of total bile excretion excreted daily” value [8] was 0(0%). For the same compound, the “daily amount excreted in bile” value [9] was 0(0%) mg, the “percentage of total bile excretion excreted daily” value [9] was 0(0%) and the “detection rate of peptide toxins in bile” value [10] was 0%. For the same compound, the “toxin concentration in bile” value [10] was 0 µg/L, the “detection rate of peptide toxins in bile” value [11] was 0% and the “toxin concentration in bile” value [11] was 0 µg/L. The “daily amount excreted in bile” value [12] was 0(0%) mg, the “percentage of total bile excretion excreted daily” value [12] was 0(0%) and the “daily amount excreted in bile” value [13] was 0(0%) mg. For the same compound, the “percentage of total bile excretion excreted daily” value [13] was 0(0%), the “detection rate of peptide toxins in bile” value [14] was 0% and the “toxin concentration in bile” value [14] was 0 µg/L. For the same compound, the “detection rate of peptide toxins in bile” value [15] was 0%, the “toxin concentration in bile” value [15] was 0 µg/L and the “daily amount excreted in bile” value [16] was 0(0%) mg. The “percentage of total bile excretion excreted daily” value [16] was 0(0%), the “daily amount excreted in bile” value [17] was 0(0%) mg and the “percentage of total bile excretion excreted daily” value [17] was 0(0%).
